# According to patent US12496297B1, “Compositions of autophagy modulating agents and uses thereof” (Washington University, priority 2020, dated 2025):
# Key:
# misfolded ATZ = experiment: Autophagic degradation of ATZ in mammalian cell line model of ATD; type: cell-based; conditions: effect blocked when autophagy gene ATG14 was deleted
# [1] = test system: C. elegans model of ATD (sGFP::ATZ); experiment: Quantification of ATZ accumulation in C. elegans model of ATD (Z worm); type: in vivo; conditions: GB administered to ATD C. elegans model
# Protocol: The C. elegans strain VK1882 (vkls1882 [nhx-2p::sGFP::ATZ; myo-2p::mCherry) was routinely cultured at 20° C. on nematode growth medium plates seeded with E. coli strain OP50. Quantitative analysis of ATZ accumulation was carried out by detection of fluorescence using the Thermofisher CellInsight CX-7 high content imager as previously described. L4 stage animals were placed into wells of 384-well plates (30 per well) containing G2 analogs or an equivalent volume of DMSO. Following incubation at 20° C. for 24 hours, sodium azide was added to a final concentration of […] to anesthetize the animals and then each well was imaged on the CX-7 high content imager for quantification.
compound,measurement,setting,value
"COc1ccc(Cl)cc1C(=O)NCCc1ccc(S(=O)(=O)NC(=O)NC2CCCCC2)cc1 [GB, 5-chloro-N-(4-(N-(cyclohexylcarbamoyl)sulfamoyl)phenethyl)-2-methoxybenzamide, reference compound]",autophagic degradation of misfolded ATZ,misfolded ATZ,enhances the autophagic degradation of misfolded ATZ
same,"accumulation of misfolded, aggregated ATZ",[1],"reduced accumulation of misfolded, aggregated ATZ"
